The values that follow come from patent US11345673B2, “1-phenylpropanone compounds and use thereof” (UNIVERSITA' DEGLI STUDI DI PADOVA, priority 2016, dated 2022).

Holding throughout (format): cell-based
Assay [1] relates to breast cancer (MDA-MB-231) cells. Nature of the assay: Proapoptotic effect by flow cytofluorometry, MDA-MB-231 cells. The conditions noted are these: Homo sapiens, 24 hours incubation, three experiments in triplicate, read-out: IC50 ± S.D. (concentration required to cause 50% apoptosis), MDA-MB-231. The text has this: (§1) Flow cytofluorometry was used to evaluate the ability of some compounds of the invention to induce cell death, with particular reference to apoptosis. This latter phenomenon is characterized by morphological modification of the plasmatic membrane as a result of the translocation of the phospholipid phosphatidylserine (PS) in the plasmatic membrane from the cytoplasmic side to the outer surface of the cell. […] Annexin is detected because it is conjugated to a specific fluorochrome, thus allowing to distinguish apoptosis from necrotic phenomena, which are instead measured by the fluorescent dye propidium iodide, which penetrates freely in the cell having a damaged plasmatic membrane.
(§2) Both primary lymphocytic tumor cells taken from patients with chronic lymphatic leukemia (LLC) and humanized cell lines of neuroblastoma (SK-N-BE), hepatocarcinoma (HepG2 and HUH7.5) and breast cancer (MDA-MB-231) were used.
(§3) HepG2 (2×10^5 cells per well), HUH7.5 and MDA-MB-231 (1.5×10^5 cells per well) cells were seeded on a 6-well plate in Dulbecco's Modified Eagle Medium (DMEM), 10% FBS and cultured at 37° C. in a 5% CO2 atmosphere. After 24 hours, the medium was removed and replaced by DMEM containing the test compounds, previously dissolved in 100% dimethylsulfoxide, and diluted such that the final concentration of the same in cell incubation solutions was 0.5% (v/v). After 30 minutes incubation, 10% FBS was added, and the cells were incubated for 24 hours, then detached with trypsin, and analyzed by cytofluorimeter. LLC cells (1×10^6 cells per well) were seeded and cultured on 12-well plates in RPMI-1640 medium, 10% FBS, at 37° C. in a humified atmosphere containing 5% CO2. To this medium, test compounds were added, and incubation was carried out for 24 hours, after which time the cells were analyzed by cytofluorimeter.
(§4) The results obtained by cytofluorometry from three separate experiments executed in triplicate were tabulated, estimating the concentration required to cause 50% apoptosis (IC50), and standard deviation.

Assay [2] deals with hepatocarcinoma (HepG2) cells. Description: Proapoptotic effect by flow cytofluorometry, HepG2 cells. The conditions noted are these: Homo sapiens, 24 hours incubation, three experiments in triplicate, read-out: IC50 ± S.D. (concentration required to cause 50% apoptosis), HepG2.
Excerpt: as §1, §2, §3, §4

In assay [3] the test system is neuroblastoma (SK-N-BE) cells. Nature of the assay: Proapoptotic effect by flow cytofluorometry, SK-N-BE cells. The following applies: Homo sapiens, three experiments in triplicate, read-out: IC50 ± S.D. (concentration required to cause 50% apoptosis), SK-N-BE.
Excerpt: as §1
Both primary lymphocytic tumor cells taken from patients with chronic lymphatic leukemia (LLC) and humanized cell lines of neuroblastoma (SK-N-BE), hepatocarcinoma (HepG2 and HUH7.5) and breast cancer (MDA-MB-231) were used. […]
as §4

The test system of assay [4] is hepatocarcinoma (HUH7.5) cells. Description: Proapoptotic effect by flow cytofluorometry, HUH7.5 cells. The conditions noted are these: Homo sapiens, 24 hours incubation, three experiments in triplicate, read-out: IC50 ± S.D. (concentration required to cause 50% apoptosis), HUH7.5.
Excerpt: as §1, §2, §3, §4

For assay [5], the system named is primary lymphocytic tumor cells taken from patients with chronic lymphatic leukemia (LLC). Nature of the assay: Proapoptotic effect by annexin V/propidium iodide flow cytofluorometry, LLC cells. The following applies: Homo sapiens, 24 hours incubation, three experiments in triplicate, read-out: IC50 ± S.D. (concentration required to cause 50% apoptosis), LLC.
Excerpt: as §1, §2, §3
Leukemic lymphocytes were isolated, following heparinized venous withdrawal from peripheral blood of LLC patients, diluted with saline in a 1:3 ratio, layered on a Ficoll/Hypaque (F/H) density gradient, centrifuged at 900 rpm for 20 minutes, at 20° C. without brakes. Mononuclear cells and platelets, concentrating on top of the F/H gradient, were separated after 2 further washings, with centrifugation at 400 rpm at room temperature. The mononuclear cells thus obtained were washed 3 times with PBS, centrifuged for 10 minutes at 400 rpm, at 20° C. with brakes, and resuspended in RPMI 1640.
In most LLC cases, the percentage of leukemic B cells was higher than 85% with respect to all mononuclear cells from peripheral blood.
as §4

For `CCCCCCOc1ccc(C(=O)CCN2CCOCC2)cc1` [Compound 1, 1-(4-(hexyloxy)phenyl)-3-morpholinopropan-1-one], the IC50 was 1.61 ± 0.08 µM in assay [1]; 1.67 ± 0.15 µM in assay [2]; 1.85 ± 0.09 µM in assay [3]; 1.58 ± 0.07 µM in assay [4]; 1.61 ± 0.1 µM in assay [5].

For `CCCCCCCOc1ccc(C(=O)CCN2CCOCC2)cc1` [Compound 2, 1-(4-(heptyloxy)phenyl)-3-morpholinopropan-1-one], the IC50 in assay [1] turned out to be 1.61 ± 0.07 µM; in assay [2] it was 1.55 ± 0.13 µM; in assay [3] it was 1.64 ± 0.09 µM; in assay [4], 1.58 ± 0.1 µM; in assay [5] it was 1.62 ± 0.15 µM.

Regarding `CCCCCCOc1ccc(C(=O)CCN2CCCCC2)cc1` [Compound 3, 1-(4-(hexyloxy)phenyl)-3-(piperidin-1-yl)propan-1-one], the IC50 in assay [1] is 2.6 ± 0.1 µM; in assay [2], 3.07 ± 0.09 µM; in assay [3], 3 ± 0.17 µM; in assay [4] it was 2.75 ± 0.09 µM; in assay [5], 2.53 ± 0.15 µM.

On to `CCCCCCCOc1ccc(C(=O)CCN2CCCCC2)cc1` [Compound 4, 1-(4-(heptyloxy)phenyl)-3-(piperidin-1-yl)propan-1-one], for which the IC50 in assay [1] was 3.01 ± 0.15 µM; in assay [2], 3 ± 0.15 µM; in assay [3], 2.93 ± 0.08 µM; in assay [4], 2.78 ± 0.13 µM; in assay [5] it was 3.03 ± 0.07 µM.

Take `CCCCCCCOc1ccc(C(=O)CCN2CCN(C)CC2)cc1` [Compound 5, 1-(4-(heptyloxy)phenyl)-3-(4-methylpiperazin-1-yl)propan-1-one]: the IC50 was 1.48 ± 0.09 µM in assay [1]; 1.6 ± 0.05 µM in assay [2]; 1.55 ± 0.1 µM in assay [3]; 1.61 ± 0.08 µM in assay [4]; 1.45 ± 0.06 µM in assay [5].

With `CCCCCSc1ccc(C(=O)CCN2CCOCC2)cc1` [Compound 6, 3-morpholino-1-(4-(pentylthio)phenyl)propan-1-one], the IC50 in assay [1] stood at 8 ± 0.07 µM; in assay [2] it was 8 ± 0.1 µM; in assay [3] it was 8.2 ± 0.1 µM; in assay [4], 8.25 ± 0.12 µM; in assay [5], 8.5 ± 0.08 µM.

As to `CCCCCCSc1ccc(C(=O)CCN2CCOCC2)cc1` [Compound 7, 1-(4-(hexylthio)phenyl)-3-morpholinopropan-1-one], the IC50 was 0.5 ± 0.2 µM in assay [1]; 0.49 ± 0.11 µM in assay [2]; 0.53 ± 0.09 µM in assay [3]; 0.56 ± 0.2 µM in assay [4]; 0.5 ± 0.2 µM in assay [5].

On to `CCCCCCCSc1ccc(C(=O)CCN2CCOCC2)cc1` [Compound 8, 1-(4-(heptylthio)phenyl)-3-morpholinopropan-1-one], for which the IC50 in assay [1] came out at 0.66 ± 0.12 µM; in assay [2], 0.57 ± 0.08 µM; in assay [3], 0.6 ± 0.05 µM; in assay [4] it was 0.63 ± 0.08 µM; in assay [5], 0.55 ± 0.09 µM.

Regarding `CCCCCSc1ccc(C(=O)CCN2CCCCC2)cc1` [Compound 9, 1-(4-(pentylthio)phenyl)-3-(piperidin-1-yl)propan-1-one], the IC50 in assay [1] was found to be 1.8 ± 0.06 µM; in assay [2], 1.66 ± 0.1 µM; in assay [3], 1.85 ± 0.14 µM; in assay [4] it was 1.73 ± 0.09 µM; in assay [5], 1.75 ± 0.04 µM.

With `CCCCCCSc1ccc(C(=O)CCN2CCCCC2)cc1` [Compound 10, 1-(4-(hexylthio)phenyl)-3-(piperidin-1-yl)propan-1-one], the IC50 in assay [1] worked out at 1.8 ± 0.09 µM; in assay [2], 1.7 ± 0.05 µM; in assay [3] it was 1.67 ± 0.05 µM; in assay [4] it was 1.8 ± 0.11 µM; in assay [5] it was 1.87 ± 0.07 µM.

As to `CCCCCCCSc1ccc(C(=O)CCN2CCCCC2)cc1` [Compound 11, 1-(4-(heptylthio)phenyl)-3-(piperidin-1-yl)propan-1-one], the IC50 in assay [1] was found to be 0.56 ± 0.06 µM; in assay [2] it was 0.59 ± 0.01 µM; in assay [3] it was 0.54 ± 0.09 µM; in assay [4] it was 0.49 ± 0.07 µM; in assay [5], 0.5 ± 0.04 µM.

Turning to `CCCCCSc1ccc(C(=O)CCN2CCN(C)CC2)cc1` [Compound 12, 3-(4-methylpiperazin-1-yl)-1-(4-(pentylthio)phenyl)propan-1-one], the IC50 in assay [1] amounted to 11.85 ± 0.07 µM; in assay [2] it was 12.95 ± 0.05 µM; in assay [3], 13.17 ± 0.12 µM; in assay [4] it was 14.54 ± 0.12 µM; in assay [5], 12.2 ± 0.11 µM.

In the case of `CCCCCCSc1ccc(C(=O)CCN2CCN(C)CC2)cc1` [Compound 13, 1-(4-(hexylthio)phenyl)-3-(4-methylpiperazin-1-yl)propan-1-one], the IC50 was determined as 0.65 ± 0.01 µM in assay [1]; 0.59 ± 0.06 µM in assay [2]; 0.67 ± 0.09 µM in assay [3]; 0.6 ± 0.12 µM in assay [4]; 0.65 ± 0.01 µM in assay [5].

In the case of `CCCCCCCSc1ccc(C(=O)CCN2CCN(C)CC2)cc1` [Compound 14, 1-(4-(heptylthio)phenyl)-3-(4-methylpiperazin-1-yl)propan-1-one], the IC50 in assay [1] was determined as 0.47 ± 0.1 µM; in assay [2], 0.5 ± 0.09 µM; in assay [3], 0.45 ± 0.07 µM; in assay [4] it was 0.52 ± 0.1 µM; in assay [5] it was 0.44 ± 0.06 µM.

In the case of `CCCCC[Se]c1ccc(C(=O)CCN2CCOCC2)cc1` [Compound 15, 3-morpholino-1-(4-(pentylselenyl)phenyl)propan-1-one], the IC50 in assay [1] turned out to be 13.9 ± 0.14 µM; in assay [2], 11.11 ± 0.07 µM; in assay [3], 15.71 ± 0.13 µM; in assay [4], 12.2 ± 0.08 µM; in assay [5], 14.2 ± 0.17 µM.

For the compound `CCCCCC[Se]c1ccc(C(=O)CCN2CCOCC2)cc1` [Compound 16, 1-(4-(hexylselenyl)phenyl)-3-morpholinopropan-1-one], the IC50 in assay [1] came to 2.58 ± 0.09 µM; in assay [2], 2.62 ± 0.08 µM; in assay [3], 2.47 ± 0.06 µM; in assay [4] it was 2.6 ± 0.1 µM; in assay [5] it was 2.53 ± 0.09 µM.

`CCCCCCC[Se]c1ccc(C(=O)CCN2CCOCC2)cc1` [Compound 17, 1-(4-(heptylselenyl)phenyl)-3-morpholinopropan-1-one]: the IC50 came out at 0.55 ± 0.07 µM in assay [1]; 0.6 ± 0.07 µM in assay [2]; 0.5 ± 0.06 µM in assay [3]; 0.5 ± 0.1 µM in assay [4]; 0.55 ± 0.04 µM in assay [5].

On to `CCCCC[Se]c1ccc(C(=O)CCN2CCCCC2)cc1` [Compound 18, 1-(4-(pentylselenyl)phenyl)-3-(piperidin-1-yl)propan-1-one], for which the IC50 in assay [1] is 7.9 ± 0.1 µM; in assay [2], 7.5 ± 0.15 µM; in assay [3] it was 8 ± 0.1 µM; in assay [4] it was 8.3 ± 0.08 µM; in assay [5] it was 8.5 ± 0.15 µM.

Take `CCCCCC[Se]c1ccc(C(=O)CCN2CCCCC2)cc1` [Compound 19, 1-(4-(hexylselenyl)phenyl)-3-(piperidin-1-yl)propan-1-one]: the IC50 in assay [1] was found to be 13.01 ± 0.12 µM; in assay [2], 12.48 ± 0.12 µM; in assay [3], 11.65 ± 0.06 µM; in assay [4] it was 11.98 ± 0.11 µM; in assay [5] it was 10.1 ± 0.08 µM.

On to `CCCCCCC[Se]c1ccc(C(=O)CCN2CCCCC2)cc1` [Compound 20, 1-(4-(heptylselenyl)phenyl)-3-(piperidin-1-yl)propan-1-one], for which the IC50 in assay [1] came out at 1.75 ± 0.1 µM; in assay [2], 1.74 ± 0.05 µM; in assay [3] it was 1.68 ± 0.13 µM; in assay [4], 1.73 ± 0.09 µM; in assay [5], 1.7 ± 0.05 µM.

Consider `CCCCC[Se]c1ccc(C(=O)CCN2CCN(C)CC2)cc1` [Compound 21, 3-(4-methylpiperazin-1-yl)-1-(4-(pentylselenyl)phenyl)propan-1-one], for which the IC50 was 14.23 ± 0.14 µM in assay [1]; 15.57 ± 0.03 µM in assay [2]; 13.88 ± 0.13 µM in assay [3]; 13.6 ± 0.09 µM in assay [4]; 14.16 ± 0.09 µM in assay [5].
